The values below come from patent publication US6372488B1, “AMPA-binding human GluR4 receptors” (NPS Allelix Corp., priority 1992, dated 2002).

The target of this assay is T1, human GluR4B receptor (Homo sapiens, UniProt P48058).
T1 construct: transported to the cell surface in mature form, lacking the signal peptide and consisting of 881 amino acids; expressed in transfected cells; host or cells: COS-1 cells (ATCC CRL 1650), transient, plasmid pcDNAI/humGluR4B
Put plainly: ligand binding assay (NMDA), membranes of human GluR4B receptor-producing COS cells. The following applies: COS cell membrane preparation.

SMILES strings stand for the structures.

T1 sequence (P48058 21-902): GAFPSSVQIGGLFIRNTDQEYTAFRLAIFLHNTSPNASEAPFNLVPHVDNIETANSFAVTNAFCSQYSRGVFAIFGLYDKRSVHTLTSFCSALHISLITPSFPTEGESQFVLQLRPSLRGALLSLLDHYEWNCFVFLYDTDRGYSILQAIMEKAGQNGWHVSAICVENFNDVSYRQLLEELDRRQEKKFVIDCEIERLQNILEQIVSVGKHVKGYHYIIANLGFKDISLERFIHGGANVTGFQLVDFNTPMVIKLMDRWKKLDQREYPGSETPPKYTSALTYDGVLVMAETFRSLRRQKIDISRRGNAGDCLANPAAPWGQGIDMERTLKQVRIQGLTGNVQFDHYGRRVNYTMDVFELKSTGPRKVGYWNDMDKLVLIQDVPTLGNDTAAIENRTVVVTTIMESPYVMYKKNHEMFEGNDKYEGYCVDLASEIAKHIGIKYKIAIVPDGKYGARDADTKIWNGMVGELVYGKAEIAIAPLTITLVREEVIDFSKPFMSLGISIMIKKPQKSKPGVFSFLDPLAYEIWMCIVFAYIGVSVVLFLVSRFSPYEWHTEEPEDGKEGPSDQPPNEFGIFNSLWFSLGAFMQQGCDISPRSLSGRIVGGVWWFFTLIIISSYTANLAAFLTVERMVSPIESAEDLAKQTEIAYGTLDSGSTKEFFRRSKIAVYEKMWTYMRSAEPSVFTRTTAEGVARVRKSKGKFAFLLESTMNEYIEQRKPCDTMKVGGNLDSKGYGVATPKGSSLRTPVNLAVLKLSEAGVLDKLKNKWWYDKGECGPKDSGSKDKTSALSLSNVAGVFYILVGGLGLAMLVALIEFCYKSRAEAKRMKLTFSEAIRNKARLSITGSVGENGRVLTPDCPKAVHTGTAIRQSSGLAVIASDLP

As to `CN[C@H](CC(=O)O)C(=O)O` [NMDA, N-methyl-D-aspartate], the “binding of NMDA to human GluR4B receptor” value is listed as “little or no demonstrable binding”.
